What was measured:
Assay in all cases: relative viability (nuclei count vs DMSO), 5 days (fraction); higher = more cells survive
Lapatinib + Decitabine = compound: CS(=O)(=O)CCNCc1ccc(-c2ccc3ncnc(Nc4ccc(OCc5cccc(F)c5)c(Cl)c4)c3c2)o1 [Lapatinib] + Nc1ncn([C@H]2C[C@H](O)[C@@H](CO)O2)c(=O)n1 [Decitabine] (partner 2 µM)
In short: (§1)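 Relative viability was taken as the ratio of nuclei in treated wells to nuclei in vehicle wells. Lung cancer cell lines in 1536-well plates received compounds by pin tool one day after seeding, either one drug alone or a fixed anchor-drug dose plus five library-drug doses (not always all listed) in √10 steps. Nuclei were counted on 4× images after 5 days of treatment, and values are medians of duplicate plates.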

Wnt-C59 + Navitoclax = compound: CC1=NC=CC(=C1)C2=CC=C(C=C2)CC(=O)NC3=CC=C(C=C3)C4=CN=CC=C4 [Wnt-C59] + CC1(C)CCC(c2ccc(Cl)cc2)=C(CN2CCN(c3ccc(C(=O)NS(=O)(=O)c4ccc(N[C@H](CCN5CCOCC5)CSc5ccccc5)c(S(=O)(=O)C(F)(F)F)c4)cc3)CC2)C1 [Navitoclax] (partner 0.5 µM)
In short: as §1

Wnt-C59 + Foretinib = compound: CC1=NC=CC(=C1)C2=CC=C(C=C2)CC(=O)NC3=CC=C(C=C3)C4=CN=CC=C4 [Wnt-C59] + COc1cc2c(Oc3ccc(NC(=O)C4(C(=O)Nc5ccc(F)cc5)CC4)cc3F)ccnc2cc1OCCCN1CCOCC1 [Foretinib] (partner 0.25 µM)
In short: as §1

Lapatinib + Linsitinib = compound: CS(=O)(=O)CCNCc1ccc(-c2ccc3ncnc(Nc4ccc(OCc5cccc(F)c5)c(Cl)c4)c3c2)o1 [Lapatinib] + C[C@]1(O)C[C@@H](c2nc(-c3ccc4ccc(-c5ccccc5)nc4c3)c3c(N)nccn32)C1 [Linsitinib] (partner 1 µM)
In short: as §1

| Cell Line | relative viability (Lapatinib + Decitabine; first compound 0.02 µM) | relative viability (Lapatinib + Decitabine; first compound 0.06325 µM) | relative viability (Lapatinib + Decitabine; first compound 0.2 µM) | relative viability (Lapatinib + Decitabine; first compound 0.6325 µM) | relative viability (Lapatinib + Decitabine; first compound 2 µM) | relative viability (Wnt-C59 + Navitoclax; first compound 0.001 µM) | relative viability (Wnt-C59 + Navitoclax; first compound 0.01 µM) | relative viability (Wnt-C59 + Navitoclax; first compound 0.03162 µM) | relative viability (Wnt-C59 + Navitoclax; first compound 0.1 µM) | relative viability (Wnt-C59 + Foretinib; first compound 0.001 µM) | relative viability (Wnt-C59 + Foretinib; first compound 0.01 µM) | relative viability (Wnt-C59 + Foretinib; first compound 0.03162 µM) | relative viability (Wnt-C59 + Foretinib; first compound 0.1 µM) | relative viability (Lapatinib + Linsitinib; first compound 0.02 µM) | relative viability (Lapatinib + Linsitinib; first compound 0.06325 µM) | relative viability (Lapatinib + Linsitinib; first compound 0.2 µM) | relative viability (Lapatinib + Linsitinib; first compound 0.6325 µM) | relative viability (Lapatinib + Linsitinib; first compound 2 µM) |
| --- | --- | --- | --- | --- | --- | --- | --- | --- | --- | --- | --- | --- | --- | --- | --- | --- | --- | --- |
| NCI-H1666 | 0.599 | 0.72 | 0.709 | 0.641 | 0.58 | 1.14 | 0.909 | 1.01 | 0.863 | 0.894 | 0.994 | 0.92 | 0.985 | 0.822 | 0.681 | 0.704 | 0.611 | 0.248 |
| NCI-H1792 | – | – | 0.555 | 0.509 | 0.388 | 0.671 | 0.669 | 0.695 | 0.701 | – | – | – | – | 0.456 | 0.455 | 0.532 | 0.533 | 0.431 |
| LCLC-103H | 0.764 | 0.657 | 0.652 | 0.775 | 0.666 | – | – | – | – | 0.752 | 0.891 | 0.889 | 0.641 | – | 0.978 | 0.998 | 0.955 | 1.08 |
| BEN | 0.413 | 0.743 | 0.725 | 0.748 | 0.665 | 0.0424 | 0.0676 | 0.0835 | 0.0708 | 0.877 | 0.615 | 0.786 | 0.747 | 0.91 | 0.858 | 0.878 | 0.769 | 0.8 |
| COR-L 105 | 0.62 | 0.538 | 0.586 | 0.613 | 0.376 | 0.905 | 0.733 | 0.878 | 1.02 | 1.13 | 0.722 | 1.03 | 0.911 | 0.796 | 0.772 | 0.954 | 0.703 | 0.272 |
| LC-2-ad | – | 0.807 | 0.715 | 0.834 | 0.692 | 0.478 | 0.349 | 0.614 | 0.406 | 0.936 | 0.947 | 1.02 | 0.947 | – | 0.817 | 0.799 | 0.694 | 0.585 |
| NCI-H358 | 0.205 | 0.181 | 0.206 | 0.162 | 0.152 | – | – | – | – | 0.759 | 0.648 | 1.04 | 0.678 | 0.548 | – | 0.512 | 0.329 | 0.277 |
| HARA | 0.575 | 0.525 | 0.522 | 0.37 | 0.398 | 1.18 | 1.17 | 1.17 | 1.13 | 0.823 | 0.765 | 1.01 | 0.841 | 0.782 | 0.686 | 0.808 | 0.755 | 0.243 |
| CAL-12T | – | – | – | – | – | 1.35 | 1.45 | 1.19 | 1.1 | 1.28 | 1.1 | 1.06 | 1.09 | 0.761 | 0.83 | 0.634 | 0.725 | 0.579 |
| NCI-H1975 | 0.374 | 0.413 | 0.389 | 0.397 | 0.312 | 1.25 | 1.11 | 1.06 | 1.2 | 0.819 | 0.891 | 0.942 | 0.906 | 0.843 | 0.927 | 0.954 | 0.853 | 0.694 |
| ABC-1 | 1.1 | 0.931 | – | 1.01 | 1.02 | – | – | – | – | 0.982 | 1.16 | 1.07 | 0.97 | – | 0.813 | 0.871 | 0.773 | 0.504 |
| NCI-H661 | 0.48 | 0.474 | 0.489 | 0.387 | 0.423 | – | – | – | – | 1 | 0.981 | 1.06 | 0.976 | 0.616 | 0.485 | 0.436 | 0.454 | 0.266 |
| ChaGo-K-1 | 0.528 | 0.562 | 0.542 | 0.52 | 0.447 | 0.657 | – | 1.07 | 1.18 | 1.01 | 0.872 | 0.978 | 0.996 | – | – | – | – | – |
| NCI-H2228 | – | – | – | – | – | 0.957 | 0.87 | 0.68 | 1.05 | 0.758 | 0.778 | 0.751 | 0.594 | 0.662 | 0.51 | 0.721 | 0.881 | 0.891 |
| NCI-H650 | – | 0.319 | 0.328 | 0.324 | 0.343 | – | – | – | – | 0.956 | 1.07 | 1.07 | 0.947 | – | 0.841 | 0.793 | 0.567 | 0.875 |
| NCI-H1299 | – | – | – | – | – | 1.03 | 1.06 | 1.02 | 1.02 | 1.15 | 1.06 | 1.05 | 1.11 | 0.973 | 0.923 | 0.98 | 1 | 1.05 |
| NCI-H2342 | 0.706 | 0.694 | 0.618 | 0.691 | 0.638 | – | – | – | – | 1.06 | 1.16 | 1.18 | 1.07 | – | – | – | – | – |
| SW 900 | – | 0.392 | 0.428 | 0.44 | 0.425 | – | – | – | – | 1.14 | 0.667 | 1.18 | 1.01 | – | – | – | – | – |
| NCI-H1703 | – | – | – | – | – | 1.45 | 1.39 | 1.08 | 1.08 | 0.346 | 0.279 | 0.355 | 0.348 | 0.695 | 0.642 | 0.888 | 0.512 | 0.662 |
| NCI-H1650 | 0.362 | 0.509 | 0.418 | 0.371 | 0.503 | 1.35 | 1.41 | 1.27 | 1.1 | 1.26 | 1.2 | 1.31 | 1.08 | – | – | – | – | – |
| NCI-H1623 | – | – | – | – | – | – | – | – | – | 0.886 | 0.732 | 0.989 | 0.893 | – | – | – | – | – |
| NCI-H1563 | – | – | – | – | – | – | – | – | – | 0.911 | 0.931 | 0.926 | 0.898 | 1.12 | 1.13 | 1.03 | 1.2 | 1.12 |
| EBC-1 | – | – | – | – | – | 0.378 | 0.405 | 0.431 | 0.513 | 0.112 | 0.11 | 0.126 | 0.106 | 0.904 | 0.883 | 0.888 | 0.938 | 0.886 |
